Experimental data: DBAASP
Converted amounts (≈) assume the structure as drawn. “And” between values parts separate entries of the source, which are not always exact repeats. Equal entries are not always repeated. Each block holds one compound with its values, some of them ahead of it.

What was measured:
Experiment in all cases: ≥ marks a high value that may be exact or a test limit, other limits are often not marked, values filed in µg/mL are converted to µM
[1] = system: Bacillus subtilis CGMCC 1.2428
[2] = system: Saccharomyces cerevisiae
[3] = system: Micrococcus luteus CGMCC 1.0290
[4] = system: Bacillus megaterium CGMCC 1.0459
[5] = system: Beauveria sp.
[6] = system: Bacillus sp. DM-1
[7] = system: Escherichia coli BL21AI
[8] = system: Micrococcus luteus ATCC 10240
[9] = system: Staphylococcus aureus IFO 12732
[10] = system: Bacillus subtilis IFO 3513
[11] = system: Escherichia coli IFO 12734
[12] = system: Micrococcus luteus ATCC 9341
[13] = system: Candida albicans KCTC 7965
[14] = system: Staphylococcus aureus KCTC 1621
[15] = system: Salmonella typhimurium KCTC 1926
[16] = system: Bacillus subtilis KCTC 3068
[17] = system: Escherichia coli KCTC 1682
[18] = system: Staphylococcus epidermidis KCTC 1917
[19] = system: Pseudomonas aeruginosa KCTC 1637
[20] = system: Staphylococcus epidermidis KCTC 3096
[21] = system: Candida albicans TIMM 1768
[22] = system: Trichosporon beigelii KCTC 7707
[23] = system: Bacillus subtilis KCTC 1918
[24] = system: Saccharomyces cerevisiae KCTC 7296
[25] = system: Neisseria gonorrhoeae F-62
[26] = system: Candida albicans
[27] = system: Escherichia coli
[28] = system: Listeria monocytogenes
[29] = system: Neisseria gonorrhoeae FA-19
[30] = system: Saccharomyces cerevisiae FY1679
[31] = system: Penicillium digitatum PHI-26
[32] = system: Escherichia coli DH5alpha
[33] = system: Bacillus subtilis NBRC 3513
[34] = system: Staphylococcus aureus NBRC 12732
[35] = system: Staphylococcus epidermidis NBRC 12933
[36] = system: Bacillus megaterium ATCC 19213

- MIC [13]: 11.3 µM (≈ 25.6 µg/mL)
- MIC [14]: 8 µM (≈ 18.1 µg/mL)
- MIC [15]: 4 µM (≈ 9.05 µg/mL)
- MIC [16]: 4 µM (≈ 9.05 µg/mL)
- MIC [17]: 8 µM (≈ 18.1 µg/mL)
- MIC [18]: 8 µM (≈ 18.1 µg/mL)
- MIC [19]: 8 µM (≈ 18.1 µg/mL)
SMILES: CC(C)C[C@H](NC(=O)[C@H](CC(C)C)NC(=O)[C@H](CCCCN)NC(=O)[C@H](CCCCN)NC(=O)[C@H](CC(C)C)NC(=O)[C@H](CC(C)C)NC(=O)[C@H](CCCCN)NC(=O)[C@H](CC(C)C)NC(=O)[C@H](Cc1c[nH]c2ccccc12)NC(=O)[C@H](CCCCN)NC(=O)[C@H](CCCCN)NC(=O)[C@H](CC(C)C)NC(=O)[C@H](CC(C)C)NC(=O)[C@H](CCCCN)NC(=O)[C@H](CCCCN)NC(=O)[C@H](CC(C)C)NC(=O)[C@@H](N)CCCCN)C(=O)N[C@@H](CCCCN)C(N)=O [KLKKLLKKWLKLLKKLLK]

- MIC [20]: 6.3 µM (≈ 8.32 µg/mL)
- MIC [15]: 0.4 µM (≈ 0.528 µg/mL)
- MIC [21]: 25 µM (≈ 33 µg/mL)
- MIC [22]: 6.3 µM (≈ 8.32 µg/mL)
- MIC [23]: 6.3 µM (≈ 8.32 µg/mL)
- MIC [24]: 12.5 µM (≈ 16.5 µg/mL)
- MIC [19]: 3.1 µM (≈ 4.09 µg/mL)
SMILES: CC(C)C[C@H](NC(=O)[C@H](CCCCN)NC(=O)[C@H](CCCCN)NC(=O)[C@H](CC(C)C)NC(=O)[C@H](CC(C)C)NC(=O)[C@H](CCCCN)NC(=O)[C@H](CCCCN)NC(=O)[C@H](CC(C)C)NC(=O)[C@H](CC(C)C)NC(=O)[C@@H]1CCCN1C(=O)[C@@H](N)CCCCN)C(N)=O [KPLLKKLLKKL]

- MIC [26]: 132 µM (≈ 130 µg/mL)
- MIC [30]: ≥ 32 µM
- MIC [31]: 4 µM and 6 µM
- MIC [32]: ≥ 32 µM
SMILES: CC(=O)N[C@@H](CCCN=C(N)N)C(=O)N[C@@H](CCCCN)C(=O)N[C@@H](CCCCN)C(=O)N[C@@H](Cc1c[nH]c2ccccc12)C(=O)N[C@@H](Cc1ccccc1)C(=O)N[C@@H](Cc1c[nH]c2ccccc12)C(N)=O [RKKWFW]

- MIC [33]: ≥ 128 µM
- MIC [34]: ≥ 128 µM
- MIC [35]: ≥ 128 µM
- MIC [36]: ≥ 64 µM
SMILES: CC(C)C[C@H](NC(=O)[C@H](CCCCN)NC(=O)[C@H](CC(C)C)NC(=O)[C@H](CC(C)C)NC(=O)[C@H](Cc1c[nH]c2ccccc12)NC(=O)[C@@H](N)CCCN=C(N)N)C(=O)NCC(=O)N[C@@H](Cc1cnc[nH]1)C(=O)N[C@@H](Cc1cnc[nH]1)C(=O)NCC(=O)N[C@@H](CCCN=C(N)N)C(=O)N[C@@H](C)C(=O)N1CCC[C@H]1C(=O)N1CCC[C@H]1C(=O)O [RWLLKLGHHGRAPP]

Second part, the compound before the results:

SMILES: CC(C)[C@H](NC(=O)[C@H](CS)NC(=O)[C@H](CC(=O)O)NC(=O)CNC(=O)[C@H](CC(N)=O)NC(=O)[C@H](CCCCN)NC(=O)[C@H](CS)NC(=O)[C@H](CCCCN)NC(=O)CNC(=O)CN)C(=O)N[C@@H](CS)C(=O)N[C@@H](CCCN=C(N)N)C(N)=O [GGKCKNGDCVCR]
- MIC [1]: 10.8 µM (≈ 13.3 µg/mL)
- MIC [2]: ≥ 52 µM
- MIC [3]: 26 µM (≈ 32.2 µg/mL)
- MIC [4]: 8.93 µM (≈ 11.1 µg/mL)
- MIC [5]: 17.7 µM (≈ 21.9 µg/mL)
- MIC [6]: ≥ 33.8 µM

SMILES: CC[C@H](C)[C@H](NC(=O)[C@@H]1CCCN1C(=O)[C@H](CCCN=C(N)N)NC(=O)[C@@H]1CCCN1C(=O)[C@H](Cc1cnc[nH]1)NC(=O)[C@H](CO)NC(=O)[C@@H](NC(=O)[C@@H]1CCCN1C(=O)[C@H](CCCN=C(N)N)NC(=O)[C@@H]1CCCN1C(=O)[C@H](CO)NC(=O)[C@H](Cc1ccc(O)cc1)NC(=O)[C@@H]1CCCN1C(=O)[C@H](CCCN=C(N)N)NC(=O)[C@@H]1CCCN1C(=O)[C@H](CCCCN)NC(=O)CN)[C@@H](C)O)C(=O)N[C@@H](CCCN=C(N)N)C(=O)N[C@H](C(N)=O)C(C)C [GKPRPYSPRPTSHPRPIRV]
- MIC [7]: 29.1 µM (≈ 64 µg/mL)
- MIC [8]: 0.455 µM (≈ 0.999 µg/mL)

SMILES: CC[C@H](C)[C@H](N)C(=O)N[C@@H](CC(C)C)C(=O)N1CCC[C@H]1C(=O)N[C@@H](Cc1ccc(O)cc1)C(=O)N[C@@H](CCCCN)C(=O)N[C@@H](Cc1ccc(O)cc1)C(=O)N1CCC[C@H]1C(=O)N[C@@H](Cc1ccc(O)cc1)C(=O)N[C@@H](Cc1ccc(O)cc1)C(=O)N1CCC[C@H]1C(=O)N[C@@H](Cc1ccc(O)cc1)C(=O)N[C@@H](CCCN=C(N)N)C(=O)N[C@@H](CCCN=C(N)N)C(N)=O [ILPYKYPYYPYRR]
- MIC [9]: 14 µM (≈ 25 µg/mL)
- MIC [10]: 14 µM (≈ 25 µg/mL)
- MIC [11]: ≥ 55.8 µM
- MIC [12]: 6.3 µM (≈ 11.3 µg/mL)

SMILES: CC(C)C[C@H](NC(=O)[C@H](CCCNC(=N)N)NC(=O)CNC(=O)CNC(=O)[C@@H](N)CCCNC(=N)N)C(=O)N[C@H]1CSSC[C@@H](C(=O)N[C@H](C(=O)NCC(=O)N[C@@H](CCCNC(=N)N)C(N)=O)C(C)C)NC(=O)[C@H](C(C)C)NC(=O)[C@@H]2CSSC[C@H](NC(=O)[C@H](Cc3ccc(O)cc3)NC1=O)C(=O)N[C@@H](CCCNC(=N)N)C(=O)N1CCC[C@H]1C(=O)N[C@@H](CCCNC(=N)N)C(=O)N[C@@H](Cc1ccccc1)C(=O)N2 [RGGRLCYCRPRFCVCVGR]
- MIC [25]: 0.666 µM (≈ 1.4 µg/mL)
- MIC [26]: 7.42 µM (≈ 15.6 µg/mL)
- MIC [27]: 1.38 µM (≈ 2.89 µg/mL)
- MIC [28]: 1.19 µM (≈ 2.49 µg/mL)
- MIC [29]: 0.761 µM (≈ 1.6 µg/mL)
